Laboratory results: patent US9643941B2, “2,2′-tandem dithiazole compound, preparation method therefor, and use thereof” (SHANGHAI INSTITUTE OF MATERIA MEDICA, CHINESE ACADEMY OF …, priority 2014, dated 2017)
Like-named read-outs stand apart in the source and are kept apart here.

What was measured:
Human source HDAC4 = Human source HDAC4 (Homo sapiens, UniProt P56524); assay: Inhibition activity against histone deacetylase 4 (fluorescence, AMC substrate); format: biochemical
Description: The test was carried out to show the inhibition activity of the compounds in this patent application against human source histone deacetylases 1, 3, 4, 6.
(§1) 2. Materials for the Test: • Human source HDAC1, HDAC3, HDAC4, and HDAC6 were obtained by the Group of Doctor LI Jia in Shanghai Institute of Materia Medica by using the baculovirus expression system and purifying. • Substrate: HDAC1, 3, 4: Ac-Lys-Tyr-Lys (Ac)-AMC; • HDAC6: Boc-lys (Ac)-AMC • ∠All were purchased from GL Biochem (Shanghai) Ltd.;
(§2) Enzyme activity was measured in 96-well or 384-well flat-bottom microplates using fluorescence detection. […] The initial reaction speed was calculated by detecting the changes of the fluorescence signal over time.
(§3) Sample treatment: The sample was dissolved in DMSO and stored at low temperature.
(§4) Illustration about the data processing and the result: In the first screening, the activity of the sample was tested at a single concentration, e.g., 20 μg/ml. […] The bottom and top of the fitting curve were set to 0 and 100 for the most inhibitor screening models.

Human source HDAC3 = Human source HDAC3 (Homo sapiens, UniProt O15379); assay: Inhibition activity against histone deacetylase 3 (fluorescence, AMC substrate); format: biochemical; conditions: IC50 ± SD/SE
Human source HDAC3, sequence (O15379 whole entry): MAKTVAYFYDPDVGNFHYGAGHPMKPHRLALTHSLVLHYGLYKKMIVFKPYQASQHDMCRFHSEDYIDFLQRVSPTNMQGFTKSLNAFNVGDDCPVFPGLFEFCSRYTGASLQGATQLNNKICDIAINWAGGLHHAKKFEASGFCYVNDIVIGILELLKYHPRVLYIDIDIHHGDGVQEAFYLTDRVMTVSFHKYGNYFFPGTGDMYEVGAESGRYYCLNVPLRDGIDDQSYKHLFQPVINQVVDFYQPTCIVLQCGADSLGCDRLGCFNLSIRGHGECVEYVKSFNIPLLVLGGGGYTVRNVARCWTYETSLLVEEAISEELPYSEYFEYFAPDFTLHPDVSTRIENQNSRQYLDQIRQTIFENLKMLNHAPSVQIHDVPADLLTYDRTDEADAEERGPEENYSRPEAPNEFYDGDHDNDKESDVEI
Human source HDAC3, sequence (Q9Y618 395-489 partner limits assumed): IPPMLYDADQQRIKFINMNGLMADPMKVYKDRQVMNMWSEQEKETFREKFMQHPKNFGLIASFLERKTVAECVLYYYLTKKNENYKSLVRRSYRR
Description: as §1, §2, §3, §4

Human source HDAC1 = Human source HDAC1 (Homo sapiens, UniProt Q13547); assay: Inhibition activity against histone deacetylase 1 (fluorescence, AMC substrate); format: biochemical; conditions: IC50 ± SD/SE
Human source HDAC1, sequence (Q13547 whole entry): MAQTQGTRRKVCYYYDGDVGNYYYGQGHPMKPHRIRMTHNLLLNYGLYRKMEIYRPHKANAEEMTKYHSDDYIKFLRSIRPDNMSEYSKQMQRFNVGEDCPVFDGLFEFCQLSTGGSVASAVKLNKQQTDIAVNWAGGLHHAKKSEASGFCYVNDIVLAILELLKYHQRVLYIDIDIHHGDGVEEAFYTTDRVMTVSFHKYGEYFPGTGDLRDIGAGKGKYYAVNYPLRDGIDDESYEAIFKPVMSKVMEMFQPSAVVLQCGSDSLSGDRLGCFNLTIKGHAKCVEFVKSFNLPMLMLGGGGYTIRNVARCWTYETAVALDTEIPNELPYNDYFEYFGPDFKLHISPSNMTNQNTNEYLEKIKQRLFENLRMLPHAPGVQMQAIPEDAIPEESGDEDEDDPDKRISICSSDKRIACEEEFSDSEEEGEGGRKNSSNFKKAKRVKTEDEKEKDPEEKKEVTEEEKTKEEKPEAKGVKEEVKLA
Description: as §1, §2, §3, §4

Human source HDAC6 = biological target: T1, Human source HDAC6 (Homo sapiens, UniProt Q9UBN7); assay: Inhibition activity against histone deacetylase 6 (fluorescence, AMC substrate); format: biochemical; conditions: for IC50: IC50 ± SD/SE
T1 sequence (Q9UBN7 1-1215): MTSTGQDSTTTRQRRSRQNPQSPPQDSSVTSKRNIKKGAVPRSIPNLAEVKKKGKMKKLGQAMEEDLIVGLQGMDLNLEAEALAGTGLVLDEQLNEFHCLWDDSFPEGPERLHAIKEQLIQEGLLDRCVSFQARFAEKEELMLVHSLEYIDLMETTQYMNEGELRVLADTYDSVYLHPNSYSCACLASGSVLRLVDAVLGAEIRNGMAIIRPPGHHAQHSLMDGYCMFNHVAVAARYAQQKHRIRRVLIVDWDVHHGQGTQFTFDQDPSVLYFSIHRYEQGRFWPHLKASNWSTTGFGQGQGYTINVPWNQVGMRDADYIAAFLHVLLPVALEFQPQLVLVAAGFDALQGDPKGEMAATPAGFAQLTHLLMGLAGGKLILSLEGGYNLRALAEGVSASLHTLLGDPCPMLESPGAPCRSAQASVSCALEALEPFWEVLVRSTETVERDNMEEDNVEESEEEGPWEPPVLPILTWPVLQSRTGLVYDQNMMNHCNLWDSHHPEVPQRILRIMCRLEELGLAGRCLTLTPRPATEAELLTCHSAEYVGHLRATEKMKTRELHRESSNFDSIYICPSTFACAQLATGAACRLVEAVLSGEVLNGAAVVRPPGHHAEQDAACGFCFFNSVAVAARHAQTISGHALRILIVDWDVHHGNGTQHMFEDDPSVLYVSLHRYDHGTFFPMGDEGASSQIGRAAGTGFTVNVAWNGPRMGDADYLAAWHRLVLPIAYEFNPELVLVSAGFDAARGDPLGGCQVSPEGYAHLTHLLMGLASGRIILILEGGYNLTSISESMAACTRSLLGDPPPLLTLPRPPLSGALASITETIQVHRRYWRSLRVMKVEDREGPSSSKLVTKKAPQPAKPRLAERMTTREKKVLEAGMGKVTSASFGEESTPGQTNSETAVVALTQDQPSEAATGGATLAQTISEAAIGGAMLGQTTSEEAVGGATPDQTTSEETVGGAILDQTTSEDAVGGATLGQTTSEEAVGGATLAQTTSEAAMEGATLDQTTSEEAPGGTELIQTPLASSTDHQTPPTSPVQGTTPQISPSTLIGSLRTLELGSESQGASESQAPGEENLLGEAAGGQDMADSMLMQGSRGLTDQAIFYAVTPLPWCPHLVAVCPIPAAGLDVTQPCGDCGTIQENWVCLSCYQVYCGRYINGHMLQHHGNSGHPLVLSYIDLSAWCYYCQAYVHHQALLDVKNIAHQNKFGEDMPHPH
Description: as §1, §2, §3, §4

[1] = test system: human source multiple myeloma cell line 8266; assay: Anti-tumor activity test in cellular level (MTT); conditions: for IC50: Homo sapiens, Multiple myeloma cell, 72 h, read-out: IC50 on human multiple myeloma cell line 8266
Description: Tetrazolium salts (MTT) colorimetry was used, the analytic method is based on the metabolic reduction of 3-(4,5-dimethyl-2-thiazolyl)-2,5-diphenyltetrazolium bromide (MTT). The NADP-related dehydrogenase existing in the mitochondria of living cells can reduce the yellow MTT to insoluble bluish violet Formazan, but the enzyme is disappeared in dead cells and MTT cannot be reduced. The optical density was measured at a wavelength of 550/690 nm using a microplate reader after Formazan was dissolved in DMSO.
The cell viability was measured by MTT assay. Cells in logarithmic growth phase were digested with 0.05% trypsin and cell numbers were counted, then 100 μL was inoculated in 96-well plate at a cell density of 2.0×10^3/well, and the plate was placed in an incubator with 5% CO2 at 37° C. overnight. Six concentration gradients were set up for each compound and three wells were set for each concentration. The compound of each concentration was added to the corresponding wells, and incubated at 37° C. in an incubator with 5% CO2 for 72 hours, and then 20 μL of 5 mg/mL MTT was added to each well. After incubation for 3 hours at 37° C., the supernatant was discarded, the remained was added with 100 μL of DMSO to be dissolved, the absorbing value was measured at the light of 550 nm (L1) using a SpectraMAX 340, and the reference wavelength was 690 nm (L2). The value of (L1-L2) was plotted against the concentration of inhibiting agent, and the IC50 was obtained by fitting the formula.
Illustration about the data processing and the result: in the first screening, the activity of the sample was tested at a single concentration, e.g., 20 μg/ml. […] The bottom and top of the fitting curve were set to 0 and 100 for the most inhibitor screening models.

EAE mouse model = assay: Drug efficacy in EAE mouse model; format: in vivo
Description: The activity of the compound as a histone deacetylase inhibitor in the treatment of EAE was tested by drug efficacy tests for compounds in the EAE mouse model.
Antigen MOG35-55 ([…]) was added with complete Freund's adjuvant (comprising 5 mg/ml of inactivated Mycobacterium tuberculosis) to be emulsified. 8-week aged female C57BL/6 mouse was injected subcutaneously with 200 μg of emulsified MOG35-55 antigen, while 200 ng of pertussis toxin was injected into each mouse. The day of induction was day 0. On day 2, 200 ng of pertussis toxin was further injected to each mouse. The symptoms of the mice were scored and recorded daily. The scoring rules were as follows,
0 point: normal, asymptomatic
3 points: the mouse was paralysis of hind limbs, and the mouse was loss of mobility.
4 points: the mouse was weakness or paralysis of forelimbs.
5 points: the mouse was dead or dying
2. Materials for the Test: • EAE mouse: Shanghai Slac Laboratory Animal Co., Ltd.; • Antigen MOG35˜55: GL Biochem (Shanghai) Ltd.;
The drug was directly added with the CMC—Na, ground and ultrasonic suspended into a uniform state. The dose was 10 mg/kg, twice a day by intragastric administration. The control group was directly administrated with PBS.

[2] = IC50 ± SD/SE, read-out: IC50 HDAC4

Human source HDAC4, sequence (P56524 whole entry): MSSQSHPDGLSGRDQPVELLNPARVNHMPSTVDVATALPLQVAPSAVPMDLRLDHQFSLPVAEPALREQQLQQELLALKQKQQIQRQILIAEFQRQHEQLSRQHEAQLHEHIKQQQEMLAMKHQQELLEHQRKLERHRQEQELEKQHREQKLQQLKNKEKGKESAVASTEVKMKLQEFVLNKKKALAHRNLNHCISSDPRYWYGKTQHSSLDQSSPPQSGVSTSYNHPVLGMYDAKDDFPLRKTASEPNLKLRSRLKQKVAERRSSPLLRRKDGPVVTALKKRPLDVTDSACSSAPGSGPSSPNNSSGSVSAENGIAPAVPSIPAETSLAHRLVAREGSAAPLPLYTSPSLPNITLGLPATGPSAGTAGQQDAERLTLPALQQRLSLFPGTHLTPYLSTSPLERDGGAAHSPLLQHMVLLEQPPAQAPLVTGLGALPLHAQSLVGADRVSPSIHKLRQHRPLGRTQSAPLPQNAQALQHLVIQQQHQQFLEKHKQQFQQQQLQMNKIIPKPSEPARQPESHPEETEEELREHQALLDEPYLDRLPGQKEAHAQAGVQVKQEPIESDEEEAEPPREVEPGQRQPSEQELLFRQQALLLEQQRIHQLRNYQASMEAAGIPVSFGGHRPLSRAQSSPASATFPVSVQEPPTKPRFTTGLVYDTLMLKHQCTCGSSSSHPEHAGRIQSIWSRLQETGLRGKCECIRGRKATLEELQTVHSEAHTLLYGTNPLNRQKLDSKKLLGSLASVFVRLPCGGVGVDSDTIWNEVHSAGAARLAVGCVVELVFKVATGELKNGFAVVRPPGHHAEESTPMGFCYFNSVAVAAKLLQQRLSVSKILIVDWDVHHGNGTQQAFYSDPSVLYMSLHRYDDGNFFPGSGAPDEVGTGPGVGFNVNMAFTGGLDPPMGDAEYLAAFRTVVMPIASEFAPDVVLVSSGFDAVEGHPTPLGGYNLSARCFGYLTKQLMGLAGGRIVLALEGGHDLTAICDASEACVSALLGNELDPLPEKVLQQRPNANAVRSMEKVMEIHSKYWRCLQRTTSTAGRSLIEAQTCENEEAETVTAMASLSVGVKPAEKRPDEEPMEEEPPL

Q: What does the source list for `CCc1sc(-c2nccs2)nc1C(=O)NCCCCC(=O)C(F)(F)F` [HD 53]?
A: IC50 (Human source HDAC4; [2]): 40 nM; IC50 (Human source HDAC3): 50 nM; IC50 (Human source HDAC1): 50 nM; IC50 (Human source HDAC6): 40 nM

Q: With `O=C(NCCCCC(=O)C(F)(F)F)c1nc(-c2nc3c(s2)CCCC3)sc1C1CC1` [HD 3] as the compound, how does the IC50 (Human source HDAC4; [2]) read?
A: The IC50 was 20 nM.

Q: And the IC50 [1]?
A: The IC50 was 240 ± 21 nM.

Q: With `CC(=O)N/N=C(\CCCCNC(=O)c1nc(-c2nccs2)sc1C1CC1)C(F)(F)F` [HD 37] as the compound, how does the IC50 (Human source HDAC4; [2]) read?
A: Its IC50 is 160 ± 10 nM.

Q: And the IC50 (Human source HDAC3)?
A: The IC50 was 350 nM.

Q: And the IC50 (Human source HDAC1)?
A: Its IC50 is 180 ± 30 nM.

Q: What about the IC50 [1] of the same compound?
A: Its IC50 is 2140 ± 22 nM.

Q: And the “activity against HDAC6 on changing trifluoroacetyl ketone to hydrazone” value (Human source HDAC6)?
A: The value was “can be improved”.

Q: And the IC50 (Human source HDAC6)?
A: The IC50 was 80 ± 10 nM.

Q: With `O=C(CO)N/N=C(/CCCCNC(=O)c1nc(-c2nccs2)sc1C1CC1)C(F)(F)F` [HD 46] as the compound, how does the IC50 (Human source HDAC4; [2]) read?
A: The IC50 was 450 ± 30 nM.

Q: What about the IC50 (Human source HDAC3) of the same compound?
A: The IC50 was 400 ± 10 nM.

Q: What about the IC50 (Human source HDAC1) of the same compound?
A: The IC50 was 500 ± 50 nM.

Q: What about the IC50 [1] of the same compound?
A: Its IC50 is 117 nM.

Q: And the “increase of activity at the cellular level compared to CFH367-C” value ([1]; cell line 8266)?
A: The value was “about 10 times”.

Q: And the “activity against HDAC6 on changing trifluoroacetyl ketone to hydrazone” value (Human source HDAC6)?
A: Its value is “can be improved”.

Q: What about the IC50 (Human source HDAC6) of the same compound?
A: Its IC50 is 350 ± 10 nM.

Q: For `Cc1cnc(-c2nc(C(=O)NCCCCC(=O)C(F)(F)F)c(C3CC3)s2)s1` [HD 55], which IC50 (Human source HDAC4; [2]) is on record?
A: Its IC50 is 70 nM.

Q: What about the IC50 (Human source HDAC6) of the same compound?
A: Its IC50 is 20 nM.

Q: How did the IC50 (Human source HDAC4; [2]) turn out when `O=C(NCCCCC(=O)C(F)(F)F)c1nc(-c2nccs2)sc1C1CC1` [HD 1] was run?
A: The IC50 was 20 nM.

Q: And the IC50 (Human source HDAC4; read-out: IC50 against HDAC4)?
A: Its IC50 is ~20 nM.

Q: What about the IC50 [1] of the same compound?
A: The IC50 was 333 ± 11 nM.

Q: And the “incidence of EAE model mice” value (EAE mouse model; 10 mg/kg twice a day, intragastric)?
A: Its value is “Effectively Reduce the Incidence”.

Q: What about the “therapeutic effect on the clinical symptoms of EAE model mice” value (EAE mouse model; 10 mg/kg twice a day, intragastric, clinical score (the FIGURE)) of the same compound?
A: The value was “good therapeutic effect”.

Q: What about the Incidence number/total number (EAE mouse model; EAE mice, 10 mg/kg twice a day, intragastric) of the same compound?
A: Its Incidence number/total number is 3/6.

Q: And the “disease severity versus solvent control group” value (EAE mouse model; P<0.01)?
A: The value was “significantly lower”.

Q: Which results are given for `CC(C)Cc1sc(-c2nccs2)nc1C(=O)NCCCCC(=O)C(F)(F)F` [HD 6]?
A: IC50 (Human source HDAC4; [2]): 40 nM; IC50 [1]: 457 ± 12 nM

Q: Which IC50 (Human source HDAC4; [2]) does the source give for `O=C(NCCCCC(=O)C(F)(F)F)c1nc(-c2nccs2)sc1Cc1ccccc1` [HD 54] here?
A: The IC50 was 70 nM.

Q: What about the IC50 (Human source HDAC3) of the same compound?
A: The IC50 was 60 nM.

Q: What about the IC50 (Human source HDAC1) of the same compound?
A: Its IC50 is 70 ± 10 nM.

Q: What about the IC50 (Human source HDAC6) of the same compound?
A: The IC50 was 60 nM.
